Read-outs that look alike come from different tables or passages of the source.
Key:
mouse = conditions: ToxRefDB end points; ref U.S. EPA 2010b; cited from earlier work
[1] = system: six prioritized vascular targets (VEGFR2, TIE2, CCL2, PAI-1, CXCL10, uPAR); assay: Vascular bioactivity score (VBS): weighted sum of activity across 23 ToxCast assays; set-up: species or system human
pregnant rabbits = conditions: cited from earlier work
pregnant rats = conditions: cited from earlier work
PTEN = PTEN (Homo sapiens, UniProt P60484); assay: PTEN biochemical assay
PI3Ka = PI3Ka (Homo sapiens, UniProt P42336); assay: PI3Ka biochemical assay
EphB2 = target: T1, EphB2 (Homo sapiens, UniProt P29323); assay: EphB2 biochemical assay; conditions: read-out: EphB2 AC50
T1 sequence (P29323 569-986 isoform P29323-2 limits assumed): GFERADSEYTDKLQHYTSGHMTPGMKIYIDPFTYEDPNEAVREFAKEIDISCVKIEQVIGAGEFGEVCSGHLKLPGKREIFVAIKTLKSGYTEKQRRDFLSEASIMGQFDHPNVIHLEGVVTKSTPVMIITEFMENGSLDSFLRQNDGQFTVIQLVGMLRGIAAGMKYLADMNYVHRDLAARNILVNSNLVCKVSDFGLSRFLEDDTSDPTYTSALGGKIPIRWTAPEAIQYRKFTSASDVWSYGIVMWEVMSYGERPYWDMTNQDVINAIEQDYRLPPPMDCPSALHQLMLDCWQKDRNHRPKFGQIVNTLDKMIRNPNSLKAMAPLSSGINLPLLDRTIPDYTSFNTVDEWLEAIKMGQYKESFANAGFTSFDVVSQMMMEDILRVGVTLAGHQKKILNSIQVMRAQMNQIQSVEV

TIE2 = TIE2 (Homo sapiens, UniProt Q02763); assay: TIE2 cell-free biochemical assay
From the text: Assays measured direct interactions between chemicals and molecular targets (receptors, enzymes), as well as downstream effects on reporter gene activity or cellular consequences. […] The perturbation scores are a method of aggregating assays into groups and providing a higher-level view of chemical activity across important signaling pathways.
The chemical library was run against these assays, as was a repeat of the TIE2 assay from the original data series (Table 2).

VEGFR3 = VEGFR3 (Homo sapiens, UniProt P35916); assay: VEGFR3 biochemical assay
VEGFR2 = VEGFR2 (Homo sapiens, UniProt P35968); assay: VEGFR2 biochemical assay
[2] = pVDCs with rat-specific effects
[3] = rabbit-specific effects in ToxRefDB prenatal studies, ref U.S. EPA 2010b
[4] = pVDCs with rabbit-specific effects
[5] = rat-specific effects in ToxRefDB prenatal studies, ref U.S. EPA 2010b
[6] = ranking of 309 phase I chemicals, mean cutoff for pVDC

Chain of PI3Ka (P42336 whole entry): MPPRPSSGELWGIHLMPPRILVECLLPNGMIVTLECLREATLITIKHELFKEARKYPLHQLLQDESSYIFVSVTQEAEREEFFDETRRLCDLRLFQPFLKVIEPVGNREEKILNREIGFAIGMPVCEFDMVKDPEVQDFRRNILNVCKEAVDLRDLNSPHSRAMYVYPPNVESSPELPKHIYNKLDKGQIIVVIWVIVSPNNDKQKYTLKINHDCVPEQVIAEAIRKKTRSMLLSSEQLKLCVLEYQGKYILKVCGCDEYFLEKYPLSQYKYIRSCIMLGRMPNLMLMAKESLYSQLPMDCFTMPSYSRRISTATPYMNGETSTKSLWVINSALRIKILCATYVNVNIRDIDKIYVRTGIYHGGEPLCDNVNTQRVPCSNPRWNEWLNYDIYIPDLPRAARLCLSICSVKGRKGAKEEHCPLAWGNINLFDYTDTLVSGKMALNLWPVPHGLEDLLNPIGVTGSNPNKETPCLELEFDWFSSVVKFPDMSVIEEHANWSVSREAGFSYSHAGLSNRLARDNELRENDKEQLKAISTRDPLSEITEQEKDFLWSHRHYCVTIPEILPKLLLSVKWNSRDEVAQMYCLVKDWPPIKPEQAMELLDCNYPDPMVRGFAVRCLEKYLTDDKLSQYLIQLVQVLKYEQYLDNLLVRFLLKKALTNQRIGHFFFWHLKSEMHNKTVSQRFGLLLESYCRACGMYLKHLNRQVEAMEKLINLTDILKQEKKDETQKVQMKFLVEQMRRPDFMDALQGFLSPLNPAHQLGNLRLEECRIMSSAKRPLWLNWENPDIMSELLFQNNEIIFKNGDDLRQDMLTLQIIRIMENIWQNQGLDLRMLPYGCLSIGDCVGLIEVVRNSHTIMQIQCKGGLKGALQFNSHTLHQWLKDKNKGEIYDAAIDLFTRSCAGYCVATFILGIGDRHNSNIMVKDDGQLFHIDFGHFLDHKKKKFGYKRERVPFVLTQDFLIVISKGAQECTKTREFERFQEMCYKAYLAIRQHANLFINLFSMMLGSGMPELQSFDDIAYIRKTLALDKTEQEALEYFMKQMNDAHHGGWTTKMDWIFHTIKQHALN
Chain of PI3Ka (P27986 whole entry partner): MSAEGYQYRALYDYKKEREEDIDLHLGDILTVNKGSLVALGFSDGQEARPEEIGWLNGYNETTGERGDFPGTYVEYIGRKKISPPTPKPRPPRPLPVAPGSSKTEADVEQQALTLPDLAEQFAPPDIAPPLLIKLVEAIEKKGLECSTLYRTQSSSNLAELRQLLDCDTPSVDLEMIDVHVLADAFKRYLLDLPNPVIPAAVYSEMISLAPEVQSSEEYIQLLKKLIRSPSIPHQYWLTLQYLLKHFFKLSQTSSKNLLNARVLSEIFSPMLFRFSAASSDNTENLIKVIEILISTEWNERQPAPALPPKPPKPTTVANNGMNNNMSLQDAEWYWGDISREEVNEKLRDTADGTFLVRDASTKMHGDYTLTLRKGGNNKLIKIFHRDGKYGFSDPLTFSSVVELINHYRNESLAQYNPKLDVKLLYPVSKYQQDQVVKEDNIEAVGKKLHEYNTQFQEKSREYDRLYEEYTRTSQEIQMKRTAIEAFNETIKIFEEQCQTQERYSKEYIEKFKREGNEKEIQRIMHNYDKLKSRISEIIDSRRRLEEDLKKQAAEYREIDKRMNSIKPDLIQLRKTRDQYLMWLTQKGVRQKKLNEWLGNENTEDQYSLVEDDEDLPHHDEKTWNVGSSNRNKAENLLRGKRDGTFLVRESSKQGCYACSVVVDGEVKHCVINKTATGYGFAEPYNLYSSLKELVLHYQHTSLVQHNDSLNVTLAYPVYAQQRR
Chain of PTEN (P60484 whole entry, species assumed): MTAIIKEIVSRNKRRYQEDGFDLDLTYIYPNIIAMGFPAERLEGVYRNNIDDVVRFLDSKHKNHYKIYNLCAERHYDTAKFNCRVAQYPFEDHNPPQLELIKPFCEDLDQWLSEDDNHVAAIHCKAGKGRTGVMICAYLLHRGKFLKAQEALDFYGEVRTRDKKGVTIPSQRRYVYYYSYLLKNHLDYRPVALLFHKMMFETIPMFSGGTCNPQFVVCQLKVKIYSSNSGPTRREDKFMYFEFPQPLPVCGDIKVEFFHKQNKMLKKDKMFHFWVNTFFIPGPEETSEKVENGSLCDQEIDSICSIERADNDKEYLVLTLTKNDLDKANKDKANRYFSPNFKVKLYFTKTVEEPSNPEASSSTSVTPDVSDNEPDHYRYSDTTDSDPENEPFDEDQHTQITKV
Chain of TIE2 (Q02763 23-1124, species assumed): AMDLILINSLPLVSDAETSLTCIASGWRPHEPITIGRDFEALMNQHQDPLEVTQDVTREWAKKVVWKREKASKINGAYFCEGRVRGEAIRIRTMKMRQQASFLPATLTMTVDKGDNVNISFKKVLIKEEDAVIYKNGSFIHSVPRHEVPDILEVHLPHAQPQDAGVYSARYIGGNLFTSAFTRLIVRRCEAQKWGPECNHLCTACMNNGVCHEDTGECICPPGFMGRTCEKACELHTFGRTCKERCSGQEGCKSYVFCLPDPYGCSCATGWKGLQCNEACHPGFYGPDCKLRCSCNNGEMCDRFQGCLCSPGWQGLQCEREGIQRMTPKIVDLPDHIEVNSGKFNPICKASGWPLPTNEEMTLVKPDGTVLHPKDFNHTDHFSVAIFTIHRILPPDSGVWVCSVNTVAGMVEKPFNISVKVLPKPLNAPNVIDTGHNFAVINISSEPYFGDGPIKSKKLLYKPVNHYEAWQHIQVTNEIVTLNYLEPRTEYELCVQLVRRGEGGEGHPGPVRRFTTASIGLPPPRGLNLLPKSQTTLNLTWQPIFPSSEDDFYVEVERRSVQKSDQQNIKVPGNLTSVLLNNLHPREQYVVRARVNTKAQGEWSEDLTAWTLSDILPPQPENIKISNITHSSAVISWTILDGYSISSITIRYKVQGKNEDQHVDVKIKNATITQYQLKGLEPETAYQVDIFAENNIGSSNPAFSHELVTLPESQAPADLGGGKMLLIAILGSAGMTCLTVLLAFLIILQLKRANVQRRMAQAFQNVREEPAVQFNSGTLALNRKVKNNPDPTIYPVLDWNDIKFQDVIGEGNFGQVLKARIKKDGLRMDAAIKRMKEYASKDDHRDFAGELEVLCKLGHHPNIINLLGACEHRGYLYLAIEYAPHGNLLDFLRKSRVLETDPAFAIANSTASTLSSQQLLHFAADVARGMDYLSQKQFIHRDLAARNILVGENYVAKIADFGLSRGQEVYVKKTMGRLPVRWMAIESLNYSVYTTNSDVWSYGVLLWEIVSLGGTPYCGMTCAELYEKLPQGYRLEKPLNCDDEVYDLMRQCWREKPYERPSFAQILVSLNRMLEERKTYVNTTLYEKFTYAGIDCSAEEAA
Chain of VEGFR3 (P35916 25-1363, species assumed): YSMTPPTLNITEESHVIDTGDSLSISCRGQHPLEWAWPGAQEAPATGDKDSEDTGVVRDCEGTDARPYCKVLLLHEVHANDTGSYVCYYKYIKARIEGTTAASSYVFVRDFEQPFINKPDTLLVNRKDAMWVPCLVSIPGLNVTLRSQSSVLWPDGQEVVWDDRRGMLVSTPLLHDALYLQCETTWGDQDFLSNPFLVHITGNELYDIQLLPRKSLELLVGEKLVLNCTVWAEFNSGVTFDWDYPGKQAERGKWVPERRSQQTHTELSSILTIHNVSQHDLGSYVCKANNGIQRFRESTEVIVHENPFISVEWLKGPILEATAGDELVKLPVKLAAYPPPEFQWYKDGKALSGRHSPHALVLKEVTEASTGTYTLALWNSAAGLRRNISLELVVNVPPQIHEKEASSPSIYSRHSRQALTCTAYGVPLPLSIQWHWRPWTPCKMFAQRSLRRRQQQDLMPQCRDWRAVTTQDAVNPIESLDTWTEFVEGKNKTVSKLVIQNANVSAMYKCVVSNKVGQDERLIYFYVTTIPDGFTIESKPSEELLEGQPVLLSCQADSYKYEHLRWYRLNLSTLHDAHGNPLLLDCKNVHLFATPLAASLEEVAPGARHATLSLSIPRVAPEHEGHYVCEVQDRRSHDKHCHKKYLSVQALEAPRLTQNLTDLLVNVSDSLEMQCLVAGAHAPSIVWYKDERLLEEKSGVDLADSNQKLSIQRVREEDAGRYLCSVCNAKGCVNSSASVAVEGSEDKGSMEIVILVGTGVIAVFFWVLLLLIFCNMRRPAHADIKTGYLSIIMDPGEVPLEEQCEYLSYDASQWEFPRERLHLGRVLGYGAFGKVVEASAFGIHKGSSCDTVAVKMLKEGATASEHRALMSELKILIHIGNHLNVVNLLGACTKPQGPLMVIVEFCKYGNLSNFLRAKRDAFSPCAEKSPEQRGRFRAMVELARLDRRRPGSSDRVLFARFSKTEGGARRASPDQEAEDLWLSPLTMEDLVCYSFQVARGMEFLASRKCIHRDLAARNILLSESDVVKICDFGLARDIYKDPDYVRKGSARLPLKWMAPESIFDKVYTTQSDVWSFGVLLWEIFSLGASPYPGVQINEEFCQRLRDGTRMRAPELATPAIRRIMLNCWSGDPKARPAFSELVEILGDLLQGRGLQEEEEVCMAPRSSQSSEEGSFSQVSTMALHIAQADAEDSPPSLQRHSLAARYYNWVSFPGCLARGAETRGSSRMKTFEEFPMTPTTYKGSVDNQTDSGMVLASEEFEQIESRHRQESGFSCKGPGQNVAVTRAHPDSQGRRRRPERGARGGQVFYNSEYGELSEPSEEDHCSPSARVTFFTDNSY

Molecule | VBS [1, 2] | VBS [1, 4] | Developmental phenotype (pregnant rats; [5]) | also measured
CCOP(=S)(OCC)Oc1ccc2c(C)c(Cl)c(=O)oc2c1 [Coumaphos] | – | – | – | MOUSE Chronic (mouse): No effe ct re corded
COC(=O)c1c(C(F)F)nc(C(F)(F)F)c(C2=NCCS2)c1CC(C)C [Thiazopyr] | 2.00 | – | – | –
N#CSCSC#N [Methylene bis(thiocyanate)] | – | 6.55 | – | Developmental phenotype (pregnant rabbits; [3]): Maternal pregnancy loss
CCOCN(C(=O)CCl)c1c(C)cccc1CC [Acetochlor] | 2.16 | – | – | –
CCCSP(=O)(OCC)Oc1ccc(Br)cc1Cl (stereo not shown) [Profenofos] | 1.71 | – | Maternal pregnancy loss | –
CCS(=O)(=O)c1cccnc1S(=O)(=O)NC(=O)Nc1nc(OC)cc(OC)n1 [Rimsulfuron] | – | 2.52 | – | Developmental phenotype (pregnant rabbits; rabbit, in vivo): Embryo fetal loss; maternal pregnancy loss
N#Cc1c(Cl)c(Cl)c(Cl)c(C#N)c1Cl [Chlorothalonil] | 3.28 | – | Embryo fetal loss; maternal pregnancy loss | –
CON=C(C(=O)OC)c1ccccc1CON=C(C)c1cccc(C(F)(F)F)c1 [Trifloxystrobin] | – | 4.26 | – | Developmental phenotype (pregnant rabbits; [3]): Skeletal: axial
COP(=O)(OC)O/C(C)=C/C(=O)N(C)C [Dicrotophos] | – | 1.59 | – | –
CCOc1nc(F)cc2nc(S(=O)(=O)Nc3c(Cl)cccc3Cl)nn12 [Diclosulam] | – | 2.09 | – | AC50 (PTEN; read-out: PTEN AC50): 50 µM; Developmental phenotype (pregnant rabbits; [3]): Maternal pregnancy loss; VBS ([1]; ToxCast chemicals of Table 2): 2.09
Cc1ccc(-c2c(Cl)nc(C#N)n2S(=O)(=O)N(C)C)cc1 [Cyazofamid] | 3.34 | – | Skeletal: axial | –
CCC(C)(C)C(=O)OC1=C(c2ccc(Cl)cc2Cl)C(=O)OC12CCCCC2 [Spirodiclofen] | 3.15 | – | Urogenital: renal | Developmental phenotype (pregnant rats; rat-specific effects in ToxRefDB prenatal studies, ref U.S. EPA 2010b, listed as spirodiclofen): urogenital end points
COP(=O)(OC)SCn1c(=O)oc2cc(Cl)cnc21 [Azamethiphos] | – | 3.10 | – | Developmental phenotype (pregnant rabbits; [3]): Maternal pregnancy loss
CCOc1cc(C(C)(C)C)ccc1C1COC(c2c(F)cccc2F)=N1 (stereo not shown) [Etoxazole] | – | 3.66 | – | Developmental phenotype (pregnant rabbits; [3]): Skeletal: axial
CCOc1cc(Oc2ccc(C(F)(F)F)cc2Cl)ccc1[N+](=O)[O-] [Oxyfluorfen] | – | 1.82 | – | Developmental phenotype (pregnant rabbits; [3]): Embryo fetal loss; maternal pregnancy loss
CCOC(=O)C(C)OC(=O)c1cc(Oc2ccc(C(F)(F)F)cc2Cl)ccc1[N+](=O)[O-] (stereo not shown) [Lactofen] | 3.18 | – | Fetal weight reduction; maternal pregnancy loss; skeletal: appendicular; skeletal: axial | –
Oc1ccc(C(c2ccc(O)cc2)C(Cl)(Cl)Cl)cc1 [2,2-bis-(p-Hydroxyphenyl)-1,1,1-trichloroethane] | – | – | – | VBS ([1]; ToxCast chemicals of Table 2): 2.28; AC50 (PI3Ka): 28 µM
C[C@@]1(c2ccc(Oc3ccccc3)cc2)OC(=O)N(Nc2ccccc2)C1=O (racemic) [Famoxadone] | – | 1.82 | – | Developmental phenotype (pregnant rabbits; [3]): Embryo fetal loss; maternal pregnancy loss
CS/C(C)=N\OC(=O)N(C)SN(C)C(=O)O/N=C(\C)SC [Thiodicarb] | 2.97 | – | Fetal weight reduction, general fetal pathology; embryo fetal loss; maternal pregnancy loss; skeletal: axial | –
Abamectin | – | – | – | VBS ([1]; ToxCast chemicals of Table 2): 5.19; AC50 (EphB2): 17 µM; PI3Ka AC50 (PI3Ka): 6.4 µM; AC50 (TIE2; read-out: TIE2 AC50, repeat of the TIE2 assay from the original data series): 38.8 µM
C=CCOC(=O)C(C)(C)OC(=O)c1cc(-n2c(=O)cc(C(F)(F)F)n(C)c2=O)ccc1Cl [Butafenacil] | – | 2.94 | – | Developmental phenotype (pregnant rabbits; [3]): Embryo fetal loss
CN1CSC(=S)N(C)C1 [Dazomet] | – | 2.61 | – | –
N#Cc1c[nH]cc1-c1cccc2c1OC(F)(F)O2 [Fludioxonil] | 1.82 | – | Urogenital: renal, ureteric | Developmental phenotype (pregnant rats; rat-specific effects in ToxRefDB prenatal studies, ref U.S. EPA 2010b, listed as fludioxonil): urogenital end points
OC(c1ccc(Cl)cc1)(c1ccc(Cl)cc1)C(Cl)(Cl)Cl [Dicofol] | – | 1.92 | – | Developmental phenotype (pregnant rabbits; [3]): Maternal pregnancy loss
CC1(C)C(C=C(Cl)Cl)C1C(=O)OC(C#N)c1ccc(F)c(Oc2ccccc2)c1 (stereo not shown) [cyfluthrin] | – | – | – | VBS [1, 6]: 1.48
CC1(C)C(C(=O)OC(C#N)c2cccc(Oc3ccccc3)c2)C1(C)C (stereo not shown) [Fenpropathrin] | 2.18 | – | – | Developmental phenotype (pregnant rats; rat, in vivo): Maternal pregnancy loss

Molecule | VBS [1, 2] | VBS [1, 4] | Developmental phenotype (pregnant rats; [5]) | also measured
CO/N=C(/C1=NOCCO1)c1ccccc1Oc1ncnc(Oc2ccccc2Cl)c1F [Fluoxastrobin] | 2.79 | – | Skeletal: appendicular | –
CC1=C(C(=O)Nc2ccccc2)SCCO1 [Carboxin] | – | 1.56 | – | Developmental phenotype (pregnant rabbits; [3]): Maternal pregnancy loss
C#CCOS(=O)OC1CCCCC1Oc1ccc(C(C)(C)C)cc1 (stereo not shown) [Propargite] | – | 3.79 | – | Developmental phenotype (pregnant rabbits; [3]): Skeletal: axial
COP(=O)(OC)OC(Br)C(Cl)(Cl)Br (stereo not shown) [Naled] | 4.22 | – | Embryo fetal loss; trunk: body wall | –
COP(=O)(OC)OC=C(Cl)Cl [Dichlorvos] | – | 2.34 | – | Developmental phenotype (pregnant rabbits; rabbit, in vivo): Maternal pregnancy loss
CCC/C(=N\OCC)C1=C(O)CC(CC(C)SCC)CC1=O (stereo not shown) [Sethoxydim] | – | – | – | AC50 (PTEN): 22 µM; VBS ([1]; ToxCast chemicals of Table 2): 0.00
CCCN(CCC)c1c([N+](=O)[O-])cc(C(F)(F)F)c(N)c1[N+](=O)[O-] [Prodiamine] | 2.19 | – | Neurosensory: eye | –
FC(F)C(F)(F)OCC(Cn1cncn1)c1ccc(Cl)cc1Cl (stereo not shown) [Tetraconazole] | 2.23 | – | General fetal pathology; skeletal: axial; urogenital: renal, ureteric | Developmental phenotype (pregnant rats; rat, in vivo): urogenital end points
CC(C)(C)c1ccc(CSc2cnn(C(C)(C)C)c(=O)c2Cl)cc1 [pyridaben] | – | – | – | VBS [1, 6]: 6.9
C#CCC1=C(C)C(OC(=O)C2C(C=C(C)C)C2(C)C)CC1=O (stereo not shown) [Prallethrin] | 2.11 | – | Maternal pregnancy loss | –
CCc1cccc(CC)c1N(COC)C(=O)CCl [Alachlor] | 2.97 | – | Fetal weight reduction; embryo fetal loss | –
CCNP(=S)(OC)O/C(C)=C/C(=O)OC(C)C (stereo not shown) [Propetamphos] | – | 2.08 | – | Developmental phenotype (pregnant rabbits; [3]): Embryo fetal loss
CCOC(=O)COc1cc(-n2ncc(C(F)(F)F)c(C)c2=O)c(F)cc1Cl [Flufenpyr-ethyl] | – | 1.73 | – | Developmental phenotype (pregnant rabbits; [3]): Maternal pregnancy loss
Fc1ccc(Oc2ccnc3cc(Cl)cc(Cl)c23)cc1 [Quinoxyfen] | – | 3.02 | – | Developmental phenotype (pregnant rabbits; rabbit, in vivo): Maternal pregnancy loss
CCCCCOC(=O)COc1cc(N2C(=O)C3=C(CCCC3)C2=O)c(F)cc1Cl [Flumiclorac-pentyl] | – | 2.11 | – | Developmental phenotype (pregnant rabbits; [3]): Maternal pregnancy loss
CCCCOCN(C(=O)CCl)c1c(CC)cccc1CC [Butachlor] | – | 1.99 | – | –
O=C(O)C1(C(=O)Nc2ccc(Cl)cc2Cl)CC1 [Cyclanilide] | – | – | – | AC50 (PTEN; read-out: PTEN AC50): 3.9 µM; VBS ([1]; ToxCast chemicals of Table 2): 0.21; AC50 (EphB2): 50 µM
CCc1cccc(C)c1N(C(=O)CCl)C(C)COC (stereo not shown) [Metolachlor] | 1.57 | – | Fetal weight reduction; embryo fetal loss; maternal pregnancy loss | –
C[C@@H]1[C@@H](c2ccc(Cl)cc2)SC(=O)N1C(=O)NC1CCCCC1 [Hexythiazox] | 2.78 | – | Skeletal: appendicular | –
Emamectin benzoate | 2.91 | – | Fetal weight reduction; skeletal: appendicular, axial, cranial | AC50 (PTEN; read-out: PTEN AC50): 2.1 µM; VBS ([1]; ToxCast chemicals of Table 2): 2.91; AC50 (EphB2): 21 µM; PI3Ka AC50 (PI3Ka): 7.9 µM
Cc1nn(C)c(Oc2ccccc2)c1/C=N/OCc1ccc(C(=O)OC(C)(C)C)cc1 [(Z,E)-Fenpyroximate] | 3.88 | – | Skeletal: axial | –
CCOC(=O)NCCOc1ccc(Oc2ccccc2)cc1 [Fenoxycarb] | – | 3.60 | – | Developmental phenotype (pregnant rabbits; [3]): Skeletal: axial
CN(C)[C@@H]1C(O)=C(C(N)=O)C(=O)[C@@]2(O)C(O)=C3C(=O)c4c(O)cccc4[C@@](C)(O)[C@H]3[C@H](O)[C@@H]12 [Oxytetracycline dihydrate, reference compound] | – | – | – | AC50 (VEGFR3): 6.5 µM; AC50 (PTEN): 1.6 µM; VBS ([1]; ToxCast chemicals of Table 2): 3.85; AC50 (PI3Ka): 6.2 µM; AC50 (TIE2): 15 µM; AC50 (VEGFR2): 19 µM
O=C1C2CC=CCC2C(=O)N1SC(Cl)(Cl)Cl (stereo not shown) [Captan] | – | – | – | AC50 (PTEN): 35 µM; VBS ([1]; ToxCast chemicals of Table 2): 1.14
Diniconazole | 4.57 | – | – | –
